Reference: article PMC9530963, “A cathelicidin antimicrobial peptide from Hydrophis cyanocinctus inhibits Zika virus infection by downregulating expression of a viral entry factor” (The Journal of Biological Chemistry, 2022)

What was measured:
COX-2 = COX-2 protein level in A549 cells (Western blot); format: cell-based, Homo sapiens; settings: A549 cells, 1.25, 2.5, or 5 μM, 24 h
Method: Figure 6 Hc-CATH downregulates AXL via inhibiting COX-2/PGE2/AC/PKA pathway.A, effect of Hc-CATH on COX-2 protein level. A549 cells were incubated with Hc-CATH (1.25, 2.5, or 5 μM) or PBS (solvent of Hc-CATH) at 37 °C for 24 h, COX-2 protein level was examined by Western blot (upper panel) and analyzed by ImageJ (lower panel). B, effect of Hc-CATH on the enzymatic activity of COX-2. Hc-CATH (1.25, 2.5, 5, and 10 μM) or PBS was incubated with COX-2. After incubation at 37 °C for 10 min, the enzymatic activity of COX-2 was detected by enzyme activity inhibitor screening kit. Celecoxib (COX-2 inhibitor, 100 nM) was used as positive control. C, effect of Hc-CATH on PGE2 production. A549 cells were incubated with Hc-CATH (5 μM) at 37 °C. After incubation for 24 h, the level of PGE2 in the cell supernatant was detected by ELISA. D and E, effect of AC (D) and PKA (E) on Hc-CATH-induced AXL downregulation. A549 cells were incubated with forskolin (FSK, agonist of AC, 10 μM) or H89 (inhibitor of PKA, 5 μM) at 37 °C. After incubation for 1 h, the culture media were removed, cells were washed three times with PBS, and fresh culture media were added to cells in the presence of Hc-CATH (5 μM). After incubation for 24 h, AXL protein level was examined by Western blot (upper panel of D and E) and analyzed by ImageJ (lower panel of D and E). ns, not significant, ∗∗p < 0.01, and ∗∗∗p < 0.001. […]

ZIKV [1] = assay: Direct inactivation of ZIKV particles (virus pre-incubated with peptide); format: cell-based, ZIKV strain PRVABC59; settings: ZIKV incubated with 2.5 μM peptide at 37 °C for 2 h, pelleted, added to Vero cells, 48 h; RNA, NS3, E protein, titer
Method: Figure 8 Hc-CATH directly inactivates ZIKV particles by disrupting viral membrane.A, schematic diagram of B–G (Hc-CATH-Vero-pre). B–G, direct inactivation of ZIKV by Hc-CATH. ZIKVs (MOI = 1) were incubated with Hc-CATH (2.5 μM), AC5 (2.5 μM), LL-37 (2.5 μM), or PBS (peptide solvent) at 37 °C for 2 h, and then the ZIKV–PBS mixture and ZIKV–peptide mixture were centrifugated at 100,000g for 70 min. The pellets were washed with PBS and centrifugated at 100,000g for 70 min again. The pellets were resuspended in PBS, added to Vero cells, and incubated for 2 h. Cells were washed with PBS and cultured in fresh DMEM containing 2% FBS. After culture at 37 °C for 48 h, the intracellular ZIKV RNA (B), NS3 protein (C and D), E protein level (E, the scale bar represents 50 μm), and extracellular ZIKV titer (F and G) were tested by qPCR, Western blot, immunofluorescence staining, and plaque-forming assay, respectively. H, binding of Hc-CATH to ZIKV. High-affinity binding plates were coated with 0.25 μM of Hc-CATH, BSA, AC5, or LL-37. Then, 1 × 10^6 PFU of ZIKV was added and incubated. […] Absorbance at 450 nm was measured after reactions were stopped using 0.5 M sulfuric acid. […] After the residual RNase was inactivated, the undigested genomic RNA in the intact ZIKV particles was extracted and quantified by testing the genes of PrM, E, and Cap proteins, respectively. ∗∗p < 0.01 and ∗∗∗p < 0.001. […]

ZIKV [2] = settings: i.v. peptide 2 h after i.v. ZIKV 10^6 PFU/mouse, qPCR
From the text: At 4, 8, and 3 days post ZIKV inoculation, C57BL/6J mice, Ifnar1^−/− mice, and pregnant C57BL/6J mice were sacrificed, respectively. Tissues and fetal mice were collected for testing ZIKV RNA by qPCR. ns, not significant, ∗p < 0.05, ∗∗p < 0.01, and ∗∗∗p < 0.001. Hc-CATH, a cathelicidin antimicrobial peptide identified from the sea snake Hydrophis cyanocinctus; PFU, plaque-forming unit; qPCR, quantitative PCR; ZIKV, Zika virus.
To evaluate the therapeutic efficacy of Hc-CATH against ZIKV infection, C57BL/6J mice, Ifnar1^−/− mice, and pregnant C57BL/6J mice were intravenously administrated with Hc-CATH at 2 h after intravenous injection of ZIKV (10^6 PFU/mouse). C57BL/6J mice, Ifnar1^−/− mice, and pregnant C57BL/6J mice were sacrificed at 4, 8, and 3 days post ZIKV inoculation, respectively. Tissues and fetal mice were collected for testing ZIKV RNA level by qPCR.

Question: How did the “expression of COX-2” value (COX-2) turn out when “KFFKRLLKSVRRAVKKFRKKPRLIGLSTLL [Hc-CATH]” was run?
Answer: The value was “did not influence the expression of COX-2”.

Question: What about the “direct inactivation of ZIKV particles” value (ZIKV [1]) of the same sequence?
Answer: Its value is “directly inactivated viral particles”.

Question: And the “ZIKV replication in C57BL/6J mice, therapeutic” value (ZIKV [2]; 4 days, tissue ZIKV RNA)?
Answer: Its value is “significantly attenuated ZIKV replication”.

Question: And the “ZIKV replication in Ifnar1−/− mice, therapeutic” value (ZIKV [2]; 8 days, tissue ZIKV RNA)?
Answer: The value was “significantly attenuated ZIKV replication”.

Question: What about the “ZIKV replication in fetal placenta and fetal mice, therapeutic” value (ZIKV [2]; pregnant C57BL/6J mice, 3 days) of the same sequence?
Answer: Its value is “significantly attenuated ZIKV replication”.
